Columns and labels:
[1] = target: Kynurenine 3-monooxygenase (Rattus norvegicus, UniProt O88867); assay: Tested for inhibitory activity against kynurenine 3-hydroxylase
[2] = target: T1, Kynureninase (Rattus norvegicus, UniProt P70712); assay: Tested for inhibitory activity against kynureninase from rat liver
T1 sequence (P70712 whole entry): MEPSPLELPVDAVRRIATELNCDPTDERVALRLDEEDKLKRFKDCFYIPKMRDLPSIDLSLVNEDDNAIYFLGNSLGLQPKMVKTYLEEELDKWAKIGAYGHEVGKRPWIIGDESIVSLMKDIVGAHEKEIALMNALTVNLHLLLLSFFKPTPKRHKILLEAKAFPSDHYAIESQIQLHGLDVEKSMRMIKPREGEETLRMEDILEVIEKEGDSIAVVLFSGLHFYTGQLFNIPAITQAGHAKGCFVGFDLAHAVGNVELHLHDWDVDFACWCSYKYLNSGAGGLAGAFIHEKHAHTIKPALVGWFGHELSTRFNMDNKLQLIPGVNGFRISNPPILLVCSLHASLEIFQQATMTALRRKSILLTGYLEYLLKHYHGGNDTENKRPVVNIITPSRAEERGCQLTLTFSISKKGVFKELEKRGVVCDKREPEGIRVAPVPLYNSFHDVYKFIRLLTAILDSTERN

[3] = target: Kynurenine 3-monooxygenase (Rattus norvegicus) (UniProt O88867); details: 100 uM
Sequence of Kynurenine 3-monooxygenase (Rattus norvegicus) (O88867 whole entry, looked up): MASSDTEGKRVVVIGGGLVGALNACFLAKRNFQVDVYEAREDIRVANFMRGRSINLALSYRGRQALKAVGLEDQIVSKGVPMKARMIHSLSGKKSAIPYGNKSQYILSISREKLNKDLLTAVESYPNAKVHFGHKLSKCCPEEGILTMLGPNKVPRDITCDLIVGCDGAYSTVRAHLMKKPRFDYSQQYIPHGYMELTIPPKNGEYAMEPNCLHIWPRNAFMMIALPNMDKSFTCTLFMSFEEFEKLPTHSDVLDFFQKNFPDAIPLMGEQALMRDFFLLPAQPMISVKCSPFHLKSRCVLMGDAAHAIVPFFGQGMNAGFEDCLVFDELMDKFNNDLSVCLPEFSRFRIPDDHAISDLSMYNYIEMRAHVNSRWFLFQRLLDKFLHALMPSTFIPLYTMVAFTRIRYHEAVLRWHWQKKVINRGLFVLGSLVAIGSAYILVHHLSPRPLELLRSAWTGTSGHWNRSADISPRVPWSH
Description: Tested for inhibitory activity against kynurenine 3-hydroxylase at 100 uM concentration

Sequence of Kynurenine 3-monooxygenase (O88867 whole entry): as the sequence (O88867 whole entry, looked up) above

## N[C@@H](CC(=O)c1cccc([N+](=O)[O-])c1)C(=O)O
[1]
  IC50: 0.5 µM
[2]
  IC50: 60 µM

## N[C@H](CC(=O)c1cccc([N+](=O)[O-])c1)C(=O)O
[3]
  inhibition: 60%
[2]
  IC50: 100 µM

Reference: ChEMBL document CHEMBL1149923, “Synthesis and activity of enantiopure (S) (m-nitrobenzoyl) alanine, potent kynurenine-3-hydroxylase inhibitor” (Bioorg Med Chem Lett, 1995)
